From patent US20040152735A1, “NO-synthase inhibitors comprising N,N'-bis(2-pyridyl)methyl-N,N'-bis(3,4,5-trimethoxybenzyl) ethylenediamine” (SOCIETE L'OREAL, S.A., priority 2001, published 2004) come the findings set out here.

SMILES strings stand for the structures.

The term inhibition denotes the relative decrease from the control value, in per cent. Higher therefore signals strong suppression.

The target of this test is T1, inducible NO-synthase (NO-synthase 2) (Homo sapiens, UniProt P35228).
T1 construct: positive control (induction of the enzyme): mixtures of interferon-(1000 U/ml) and of interleukin 1-(100 U/ml); endogenous in cells; 267(30), 21277-21280, 1992
T1 sequence (P35228 whole entry, species assumed): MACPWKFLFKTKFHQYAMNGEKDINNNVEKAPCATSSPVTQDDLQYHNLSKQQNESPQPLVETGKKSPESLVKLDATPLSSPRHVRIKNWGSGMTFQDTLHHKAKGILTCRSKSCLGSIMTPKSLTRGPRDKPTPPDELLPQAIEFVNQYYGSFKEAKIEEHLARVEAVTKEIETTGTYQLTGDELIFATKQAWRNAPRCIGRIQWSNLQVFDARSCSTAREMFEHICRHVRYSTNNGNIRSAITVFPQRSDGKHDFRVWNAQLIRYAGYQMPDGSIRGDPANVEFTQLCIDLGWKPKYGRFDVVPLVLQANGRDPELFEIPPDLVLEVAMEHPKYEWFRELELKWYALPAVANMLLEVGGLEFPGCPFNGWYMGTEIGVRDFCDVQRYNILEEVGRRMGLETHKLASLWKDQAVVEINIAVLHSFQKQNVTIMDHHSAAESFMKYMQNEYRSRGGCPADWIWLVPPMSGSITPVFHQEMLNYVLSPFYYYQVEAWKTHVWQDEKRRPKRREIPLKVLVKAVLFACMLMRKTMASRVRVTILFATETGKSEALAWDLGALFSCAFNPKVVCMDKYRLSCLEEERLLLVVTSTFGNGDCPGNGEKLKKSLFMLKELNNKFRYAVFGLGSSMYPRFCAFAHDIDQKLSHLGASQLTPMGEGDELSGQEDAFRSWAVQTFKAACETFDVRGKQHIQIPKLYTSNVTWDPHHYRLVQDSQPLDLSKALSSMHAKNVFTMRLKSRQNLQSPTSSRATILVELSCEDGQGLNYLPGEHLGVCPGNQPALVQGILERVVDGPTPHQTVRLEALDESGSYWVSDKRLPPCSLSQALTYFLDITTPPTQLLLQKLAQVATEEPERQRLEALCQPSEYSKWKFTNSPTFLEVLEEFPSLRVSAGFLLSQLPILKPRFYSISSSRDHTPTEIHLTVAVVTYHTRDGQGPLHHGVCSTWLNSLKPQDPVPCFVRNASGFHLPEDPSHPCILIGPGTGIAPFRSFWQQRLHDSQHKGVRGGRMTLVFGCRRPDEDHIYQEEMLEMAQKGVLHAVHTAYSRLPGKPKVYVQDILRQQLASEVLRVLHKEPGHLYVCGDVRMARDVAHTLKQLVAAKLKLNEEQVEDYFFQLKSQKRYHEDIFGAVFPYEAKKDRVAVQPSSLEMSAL
Kind of test: Inhibition of inducible NO-synthase (test of Heck et al.): nitrite/nitrate measured after stimulating NO-synthase 2 with interferon and interleukin 1. The class given is cell-based. The method, then: The activity of N,N′-bis(2-pyridyl)methyl-N,N′-bis(3,4,5-trimethoxybenzyl)ethylenediamine on inducible NO-synthase was evaluated in the test described by Heck et al., (J.B.C., Vol. 267, No. 30, 21277-21280, Oct. 25, 1992).
The object of this test is to show the reduction in the concentration of nitrate and nitrite, ultimately, after stimulating NO-synthase 2.
The following controls were introduced into the tests:
A: positive control (induction of the enzyme): mixtures of interferon-(1000 U/ml) and of interleukin 1-(100 U/ml);
To determine the activity of the test product, the amount of stable NO reaction products (nitrites and nitrates) is measured using the “nitric calorimetric assay” kit marketed by Boehringer under the reference 1756.28.
N,N′-bis(2-pyridyl)methyl-N,N′-bis(3,4,5-trimethoxybenzyl) ethylenediamine was tested at concentrations of 10 μM, 50 μM and 100 μM in ethanol.

For `COc1cc(CN(CCN(Cc2cc(OC)c(OC)c(OC)c2)Cc2ccccn2)Cc2ccccn2)cc(OC)c1OC` [N,N′-bis(2-pyridyl)methyl-N,N′-bis(3,4,5-trimethoxybenzyl)ethylenediamine], for the setting “10 μM in ethanol, nitrites and nitrates after induction with interferon (1000 U/ml) and interleukin 1 (100 U/ml)”, the inhibition at 10 µM came out at 18.8%. This compound yielded an inhibition at 50 µM (50 μM in ethanol, nitrites and nitrates after induction with interferon (1000 U/ml) and interleukin 1 (100 U/ml)) of 48.3%. This compound yielded an inhibition at 100 µM (100 μM in ethanol, nitrites and nitrates after induction with interferon (1000 U/ml) and interleukin 1 (100 U/ml)) of 62%. Where the note is “conclusion from the test at 10-100 μM”, the “effect on inducible NO-synthase (in words)” value is “has an inhibitory effect on inducible NO-synthase”.
